The target of one assay is T1, human TRPM4 (Homo sapiens, UniProt Q8TD43).
T1 construct: host or cells: HEK293, stably expressing
Description: QPatch assay (automated patch clamp), TRPM4. It is filed as cell-based. As to conditions: human TRPM4-expressing HEK293 cells, read-out: TRP M4 IC50. As to the method:
QPatchHTX, an automated electrophysiology platform, was used in single hole mode. One day before use human TRPM4- or TRPM5-expressing HEK293 cells were seeded in a T75 flask at a density of 53k cells per cm^2 and at passages < 23. […] The extracellular solution was (in mM): CaCl2 (7), MgCl2 (2), KCl (5), HEPES (10), NaCl (70), NMDG (70); pH 7.4 with NaOH. The intracellular solution was (in mM): HEPES (10), NMDG (100), NaCl (50), EGTA (20), MgCl2 (1), CaCl2 (21); pH 7.2 with HCl. […] This protocol was repeated every 7 seconds. […] FFA was used as reference compound and applied cumulatively with each concentration incubating at a minimum of 20 voltage protocol runs (140 seconds) with the current after addition of FFA being calculated as full block. […] Each compound was measured at least 3 time independently.
In general terms: The patch-clamp technique gives a direct electrical read-out from membranes.

The target in assay [1] is T2, dopamine transporter (h) (antagonist radioligand) (Homo sapiens, UniProt Q01959).
T2 construct: purchased Eurofins Cerep Safetyscreen 44 Panel; Study ID FR095-0009609
T2 sequence (Q01959 whole entry): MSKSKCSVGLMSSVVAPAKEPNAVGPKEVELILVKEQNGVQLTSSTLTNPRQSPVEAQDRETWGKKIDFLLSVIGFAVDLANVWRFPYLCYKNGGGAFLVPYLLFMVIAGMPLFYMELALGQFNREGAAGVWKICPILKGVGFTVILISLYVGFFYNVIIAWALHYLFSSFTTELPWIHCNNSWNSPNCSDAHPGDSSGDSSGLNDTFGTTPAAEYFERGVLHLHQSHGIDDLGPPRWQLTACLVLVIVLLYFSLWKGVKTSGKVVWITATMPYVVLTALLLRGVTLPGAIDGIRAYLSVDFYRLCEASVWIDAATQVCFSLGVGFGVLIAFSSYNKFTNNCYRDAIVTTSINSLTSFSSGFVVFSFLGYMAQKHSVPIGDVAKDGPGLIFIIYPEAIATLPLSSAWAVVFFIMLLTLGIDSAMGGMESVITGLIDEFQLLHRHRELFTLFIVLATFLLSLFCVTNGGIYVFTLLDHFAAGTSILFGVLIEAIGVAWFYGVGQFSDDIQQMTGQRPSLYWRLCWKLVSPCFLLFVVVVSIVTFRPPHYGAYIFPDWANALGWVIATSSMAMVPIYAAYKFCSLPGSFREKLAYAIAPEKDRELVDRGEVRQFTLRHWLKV
Description: In vitro pharmacology (SafetyScreen44), dopamine transporter binding. Particulars: Ref. CMP BTCP, read-out: Inhibiton (%) dopamine transporter (h) (antagonist radioligand). As to the method:
(§1) In vitro assays were used to test absorption, distribution, metabolism, excretion and toxicity (ADMET) parameters for selected compounds. Compound absorption was assessed using parallel artificial membrane permeability (PAMPA) and Caco-2 cell permeability assays (cut-off criterion > 2 × 10^-6 cm s^-1). Compound toxicity was evaluated by measuring inhibition of cytochrome P450 enzymes (CYP), the potassium channel hERG, and TRPM5, with all parameters meeting acceptable criteria (Table 1). To assess potential off-target activity of the compounds that could be relevant for safety in humans, in vitro pharmacology tests using the commercially available and widely used SafetyScreen44 interaction panel^60 covering eight protein families were conducted (Tables 2 and 3). The lack of off-target activities on hERG channels and in vitro pharmacology profiles are promising and consistent with absence of toxicity during in vivo pharmacokinetic assessments, see below. Table 1. In vitro ADMET profile of Series 1 compounds.
(§2) Table 2. In vitro pharmacology profile of representative compounds disclosed herein, i.e. of benzoxazoles according to Formula (I) (CMP 343 and 354). Only inhibitions above 50% relative to the reference compound are shown and considered active. […]

The target in the next assay is T3, COX1 (h) (Homo sapiens, UniProt P23219).
T3 construct: purchased Eurofins Cerep Safetyscreen 44 Panel; Study ID FR095-0009609
T3 sequence (P23219 24-599): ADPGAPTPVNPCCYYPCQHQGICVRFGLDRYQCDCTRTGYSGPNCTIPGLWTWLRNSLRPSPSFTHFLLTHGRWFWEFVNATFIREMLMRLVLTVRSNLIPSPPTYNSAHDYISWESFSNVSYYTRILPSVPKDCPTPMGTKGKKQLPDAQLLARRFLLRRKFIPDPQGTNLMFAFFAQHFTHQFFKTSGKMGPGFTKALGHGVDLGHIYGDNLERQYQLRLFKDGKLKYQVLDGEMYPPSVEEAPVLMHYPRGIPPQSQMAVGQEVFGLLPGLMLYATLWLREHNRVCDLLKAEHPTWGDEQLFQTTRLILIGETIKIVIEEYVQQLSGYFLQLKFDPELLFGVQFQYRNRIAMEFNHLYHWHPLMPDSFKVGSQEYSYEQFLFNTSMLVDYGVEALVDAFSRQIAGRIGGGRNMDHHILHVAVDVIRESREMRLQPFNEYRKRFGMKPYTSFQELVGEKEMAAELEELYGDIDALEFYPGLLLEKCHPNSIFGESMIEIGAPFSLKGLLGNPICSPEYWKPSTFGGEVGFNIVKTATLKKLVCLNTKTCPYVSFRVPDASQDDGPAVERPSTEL
Briefly: In vitro pharmacology (SafetyScreen44), COX1. Type of assay: biochemical. Particulars: Ref. CMP Diclofenac, read-out: Inhibiton (%) COX1 (h). As to the method:
as §1, §2

Assay [2] has as its target T4, 5-HT2B (h) (agonist radioligand) (Homo sapiens, UniProt P41595).
T4 construct: purchased Eurofins Cerep Safetyscreen 44 Panel; Study ID FR095-0009609
Description: In vitro pharmacology (SafetyScreen44), 5-HT2B binding. Particulars: Ref. CMP (±)DOI, read-out: Inhibiton (%) 5-HT2B (h) (agonist radioligand). How it is done:
as §1, §2

Assay [3] concerns the target T5, kappa (h) (KOP) (agonist radioligand) (Homo sapiens, UniProt P41145).
T5 construct: purchased Eurofins Cerep Safetyscreen 44 Panel; Study ID FR095-0009609
Briefly: In vitro pharmacology (SafetyScreen44), kappa opioid receptor binding. Particulars: Ref. CMP U50488, read-out: Inhibiton (%) kappa (h) (KOP) (agonist radioligand). As to the method:
as §1, §2

For assay [4], the target named is T6, norepinephrine transporter (h) (antagonist radioligand) (Homo sapiens, UniProt P23975).
T6 construct: purchased Eurofins Cerep Safetyscreen 44 Panel; Study ID FR095-0009609
T6 sequence (P23975 whole entry): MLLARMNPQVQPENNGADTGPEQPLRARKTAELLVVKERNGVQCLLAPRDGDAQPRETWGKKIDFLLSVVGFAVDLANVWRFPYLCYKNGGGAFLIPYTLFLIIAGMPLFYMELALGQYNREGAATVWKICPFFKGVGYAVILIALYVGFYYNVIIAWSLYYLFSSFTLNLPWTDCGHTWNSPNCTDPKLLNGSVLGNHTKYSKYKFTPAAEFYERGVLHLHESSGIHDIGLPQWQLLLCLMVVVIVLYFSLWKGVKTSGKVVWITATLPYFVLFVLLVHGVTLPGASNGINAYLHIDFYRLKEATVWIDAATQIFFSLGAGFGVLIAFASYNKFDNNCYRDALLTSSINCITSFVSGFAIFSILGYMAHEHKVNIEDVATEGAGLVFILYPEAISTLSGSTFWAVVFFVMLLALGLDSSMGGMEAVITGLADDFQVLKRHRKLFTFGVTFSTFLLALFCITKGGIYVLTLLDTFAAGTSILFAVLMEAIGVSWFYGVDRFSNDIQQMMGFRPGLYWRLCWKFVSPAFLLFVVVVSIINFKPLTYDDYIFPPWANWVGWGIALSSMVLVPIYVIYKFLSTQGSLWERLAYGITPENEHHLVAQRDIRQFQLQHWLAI
Briefly: In vitro pharmacology (SafetyScreen44), norepinephrine transporter binding. As to conditions: Ref. CMP protriptyline, read-out: Inhibiton (%) norepinephrine transporter (h) (antagonist radioligand). How it is done:
as §1, §2

Assay [5] deals with T7, 5-HT2A (h) (agonist radioligand) (Homo sapiens, UniProt P28223).
T7 construct: purchased Eurofins Cerep Safetyscreen 44 Panel; Study ID FR095-0009609
T7 sequence (P28223 whole entry): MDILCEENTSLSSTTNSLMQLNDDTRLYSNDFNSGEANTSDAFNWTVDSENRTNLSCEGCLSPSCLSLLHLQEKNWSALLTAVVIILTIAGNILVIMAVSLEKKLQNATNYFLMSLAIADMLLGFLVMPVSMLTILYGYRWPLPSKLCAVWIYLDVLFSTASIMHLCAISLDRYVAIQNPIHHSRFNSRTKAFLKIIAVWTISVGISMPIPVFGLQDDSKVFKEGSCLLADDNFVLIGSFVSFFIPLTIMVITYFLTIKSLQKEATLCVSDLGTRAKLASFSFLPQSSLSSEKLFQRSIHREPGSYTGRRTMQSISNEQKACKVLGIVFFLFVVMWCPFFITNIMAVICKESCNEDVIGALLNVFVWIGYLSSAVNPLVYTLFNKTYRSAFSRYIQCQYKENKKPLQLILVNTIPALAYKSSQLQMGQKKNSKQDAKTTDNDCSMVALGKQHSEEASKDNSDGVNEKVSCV
Description: In vitro pharmacology (SafetyScreen44), 5-HT2A binding. As to conditions: Ref. CMP (±)DOI, read-out: Inhibiton (%) 5-HT2A (h) (agonist radioligand). How it is done: as §1, §2

One may read the IC50 as the midpoint of a concentration-inhibition curve.

T4 sequence (P41595 whole entry): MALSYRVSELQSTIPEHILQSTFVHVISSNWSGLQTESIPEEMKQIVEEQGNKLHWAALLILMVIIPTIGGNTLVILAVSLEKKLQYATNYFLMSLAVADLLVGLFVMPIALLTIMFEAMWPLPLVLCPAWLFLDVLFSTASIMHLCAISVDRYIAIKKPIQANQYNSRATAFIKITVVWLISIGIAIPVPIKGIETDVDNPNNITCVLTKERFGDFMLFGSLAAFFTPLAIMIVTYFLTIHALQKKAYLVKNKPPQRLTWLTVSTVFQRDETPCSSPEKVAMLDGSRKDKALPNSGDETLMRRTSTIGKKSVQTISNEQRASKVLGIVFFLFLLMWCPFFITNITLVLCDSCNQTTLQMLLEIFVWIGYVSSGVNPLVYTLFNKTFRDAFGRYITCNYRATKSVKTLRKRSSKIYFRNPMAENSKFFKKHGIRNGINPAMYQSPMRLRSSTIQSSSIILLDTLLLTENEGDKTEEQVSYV
T5 sequence (P41145 whole entry): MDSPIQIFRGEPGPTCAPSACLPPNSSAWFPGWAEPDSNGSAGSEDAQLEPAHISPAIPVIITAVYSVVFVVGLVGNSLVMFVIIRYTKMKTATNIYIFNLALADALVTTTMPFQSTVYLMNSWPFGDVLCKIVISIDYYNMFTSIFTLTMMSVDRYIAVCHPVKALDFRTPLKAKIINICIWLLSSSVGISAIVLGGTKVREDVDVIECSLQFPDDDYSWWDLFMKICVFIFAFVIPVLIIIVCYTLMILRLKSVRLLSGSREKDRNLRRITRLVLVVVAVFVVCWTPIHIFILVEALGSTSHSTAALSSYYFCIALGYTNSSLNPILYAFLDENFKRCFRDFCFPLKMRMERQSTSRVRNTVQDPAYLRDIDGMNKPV
T1 sequence (Q8TD43 whole entry): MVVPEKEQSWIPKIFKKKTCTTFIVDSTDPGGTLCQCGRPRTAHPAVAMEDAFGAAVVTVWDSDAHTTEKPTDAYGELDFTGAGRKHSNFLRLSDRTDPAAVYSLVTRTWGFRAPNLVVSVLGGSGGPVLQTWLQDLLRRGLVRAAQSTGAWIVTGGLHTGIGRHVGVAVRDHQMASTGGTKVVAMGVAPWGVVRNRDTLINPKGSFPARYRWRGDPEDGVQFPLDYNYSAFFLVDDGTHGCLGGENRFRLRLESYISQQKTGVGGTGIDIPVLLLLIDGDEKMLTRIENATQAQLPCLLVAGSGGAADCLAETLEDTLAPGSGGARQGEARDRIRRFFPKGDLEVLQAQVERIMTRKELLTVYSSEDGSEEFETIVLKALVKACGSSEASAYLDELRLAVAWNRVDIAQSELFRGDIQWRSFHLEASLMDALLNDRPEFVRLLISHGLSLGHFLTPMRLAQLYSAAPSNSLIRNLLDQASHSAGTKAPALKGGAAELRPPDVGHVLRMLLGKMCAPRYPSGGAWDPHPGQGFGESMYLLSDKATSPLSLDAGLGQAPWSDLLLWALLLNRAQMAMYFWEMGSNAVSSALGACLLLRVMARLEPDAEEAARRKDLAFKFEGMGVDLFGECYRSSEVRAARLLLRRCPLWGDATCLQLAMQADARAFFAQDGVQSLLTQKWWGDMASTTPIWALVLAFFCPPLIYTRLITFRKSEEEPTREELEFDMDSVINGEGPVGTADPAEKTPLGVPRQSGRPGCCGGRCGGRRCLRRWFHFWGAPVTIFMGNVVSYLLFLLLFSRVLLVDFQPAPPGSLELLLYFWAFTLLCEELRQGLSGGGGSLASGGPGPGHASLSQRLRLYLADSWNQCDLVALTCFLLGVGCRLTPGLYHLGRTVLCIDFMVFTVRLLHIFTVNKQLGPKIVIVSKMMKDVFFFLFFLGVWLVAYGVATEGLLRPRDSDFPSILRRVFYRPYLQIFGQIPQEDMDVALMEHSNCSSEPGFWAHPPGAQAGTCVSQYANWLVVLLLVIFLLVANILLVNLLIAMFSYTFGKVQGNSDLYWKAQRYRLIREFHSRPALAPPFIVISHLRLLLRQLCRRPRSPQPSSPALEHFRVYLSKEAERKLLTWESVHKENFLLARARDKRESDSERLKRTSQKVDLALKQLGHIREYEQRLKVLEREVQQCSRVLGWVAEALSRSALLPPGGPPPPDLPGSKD

Consider `Cc1noc(-c2csc(S(=O)(=O)Nc3ccccc3C(F)(F)F)c2)c1C` [CMP157], for which the IC50 on human TRPM4 was 630 nM.

Consider `Fc1cccc(-c2ccccc2NCc2nc3ccccc3o2)c1` [CMP343], for which the inhibition at 5 µM in assay [1] worked out at 70%; on COX1 (h), 56%; in assay [2], 70%; in assay [3], 63%; in assay [4], 78%; in assay [5] it was 51%.

`Cc1ccc(-c2ccccc2NCc2nc3ccccc3o2)s1` [CMP354]: the inhibition at 5 µM in assay [1] came out at 64%; in assay [2], 65%; in assay [4], 74%; in assay [5], 73%.
